Data as given in paper PMC4361900 (Journal of medicinal chemistry, 2013).

Tests used:
MAO B = molecular target: T1, MAO B (Homo sapiens, UniProt P27338); assay: MAO B inhibition, kynuramine fluorescence assay; type: biochemical; conditions: for Inhibition of MAO B, % inhibition @ conc.: @ 500 µM
T1 sequence (P27338 1-520): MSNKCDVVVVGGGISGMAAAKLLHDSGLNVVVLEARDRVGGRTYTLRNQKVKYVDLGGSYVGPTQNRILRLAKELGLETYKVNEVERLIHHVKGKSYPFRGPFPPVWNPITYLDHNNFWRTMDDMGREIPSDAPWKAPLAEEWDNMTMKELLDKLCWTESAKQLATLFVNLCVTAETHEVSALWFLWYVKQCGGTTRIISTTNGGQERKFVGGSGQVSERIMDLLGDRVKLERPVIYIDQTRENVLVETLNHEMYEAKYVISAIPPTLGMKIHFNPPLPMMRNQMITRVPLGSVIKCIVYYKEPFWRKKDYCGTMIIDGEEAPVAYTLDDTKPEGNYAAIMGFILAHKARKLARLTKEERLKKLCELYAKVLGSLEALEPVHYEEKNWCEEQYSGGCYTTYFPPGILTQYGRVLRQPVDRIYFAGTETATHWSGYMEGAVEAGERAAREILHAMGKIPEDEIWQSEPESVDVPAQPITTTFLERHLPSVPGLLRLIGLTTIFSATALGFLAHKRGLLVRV

MAO A = molecular target: T2, MAO A (Homo sapiens, UniProt P21397); assay: MAO A inhibition, kynuramine fluorescence assay; type: biochemical
T2 sequence (P21397 1-527): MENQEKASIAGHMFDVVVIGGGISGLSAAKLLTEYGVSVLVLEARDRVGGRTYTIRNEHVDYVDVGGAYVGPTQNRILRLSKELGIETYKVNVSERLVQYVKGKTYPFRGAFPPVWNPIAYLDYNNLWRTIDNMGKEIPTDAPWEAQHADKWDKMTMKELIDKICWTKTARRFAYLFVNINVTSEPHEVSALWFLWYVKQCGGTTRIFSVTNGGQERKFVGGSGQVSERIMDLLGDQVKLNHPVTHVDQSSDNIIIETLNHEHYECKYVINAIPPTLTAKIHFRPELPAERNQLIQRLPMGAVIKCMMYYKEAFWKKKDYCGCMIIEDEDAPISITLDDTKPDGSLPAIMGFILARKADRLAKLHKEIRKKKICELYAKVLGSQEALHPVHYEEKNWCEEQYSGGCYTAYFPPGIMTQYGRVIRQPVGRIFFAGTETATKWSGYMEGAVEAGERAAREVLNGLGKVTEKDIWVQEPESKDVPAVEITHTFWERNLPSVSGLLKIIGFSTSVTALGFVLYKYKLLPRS

H3K4me2 in MCF7 cells = assay: Western blot of H3K4 dimethylation in MCF7 cells; type: cell-based; conditions: 24 hours incubation
[1] = Solubility in cell culture media; type: physicochemical
LSD1 [2] = molecular target: T3, LSD1 (Homo sapiens, UniProt O60341); assay: LSD1 in-vitro inhibition, horseradish peroxidase; type: biochemical; conditions: for Inhibition of LSD1, % inhibition @ conc.: @ 100 µM
LSD1 [3] = molecular target: T3, LSD1; conditions: MAO inhibitors; cited from earlier work

Structure (SMILES)	Inhibition of LSD1, % inhibition @ conc. (LSD1 [2])	also measured
C#CCNCCCC[C@H](NC(=O)c1ccccc1)C(=O)OC(C)(C)C [1a]		Inhibition of MAO B, % inhibition @ conc. (MAO B): n.i. ^a @ 500 µM; Inhibition of MAO A, % inhibition @ conc. (MAO A; @ 100 µM): n.i. @ 100 µM
C#CCN(C)CCCC[C@H](NC(=O)OCc1ccccc1)C(=O)OCc1ccccc1 [2b]		Inhibition of MAO B, % inhibition @ conc. (MAO B): n.i. @ 500 µM
C#CCN(C)CCCOc1cccc(NC(=O)c2ccccc2)c1 [4b]		H3K4 dimethylation level (western blot) (H3K4me2 in MCF7 cells): increased levels of H3K4 dimethylation; Solubility in cell culture media [1]: soluble
C#CCNCC(O)COc1ccc(-c2ccccc2)cc1 (stereo not drawn) [5a, 3-(Prop-2-ynylamino)-2-hydroxy-1-(biphenyl-4-yloxy)propane]		H3K4 dimethylation level (western blot) (H3K4me2 in MCF7 cells): increased levels of H3K4 dimethylation; Solubility in cell culture media [1]: soluble
C#CCN(C)CC(O)COc1ccc(-c2ccccc2)cc1 (stereo not drawn) [5b]		Inhibition of MAO A, % inhibition @ conc. (MAO A; @ 10 µM): n.i. @ 10 µM
C#CCN(C)CC(O)COc1ccc2ccccc2c1 (stereo not drawn) [5d]		MAO-B inhibition in words (MAO B): only limited inhibition
C#CCNCC(O)COc1ccc(-c2ccc(Br)cc2)cc1 (stereo not drawn) [5i]	n.i. @ 100 µM	
C#CCNCC(O)COc1ccc(-c2ccc(Cl)cc2Cl)cc1 (stereo not drawn) [5j]	n.i. @ 100 µM	
C#CCNCC(O)COc1ccc(-c2cc(Cl)cc(Cl)c2)cc1 (stereo not drawn) [5k]	n.i. @ 100 µM	
C#CCN(C)CC(O)COc1ccc(C(=O)OC)cc1 (stereo not drawn) [5l]	n.i. @ 100 µM	
C#CCNCC(O)COc1ccc(C(=O)OC)cc1 (stereo not drawn) [5m]	n.i. @ 100 µM	
C#CCN(C)CC(O)COc1ccc(CC(=O)OC)cc1 (stereo not drawn) [5n]	n.i. @ 100 µM	
C#CCNCC(O)COc1ccc(CC(=O)OC)cc1 (stereo not drawn) [5o]	n.i. @ 100 µM	
C#CCN(C)CC(O)COc1ccc(CCC(=O)OC)cc1 (stereo not drawn) [5p]	n.i. @ 100 µM	
C#CCNCC(O)COc1ccc(C(N)=O)cc1 (stereo not drawn) [5q]	n.i. @ 100 µM	
C#CCN(C)CC(O)COc1ccc(C(N)=O)cc1 (stereo not drawn) [5r]	n.i. @ 100 µM	
C#CCNCC(O)CNc1ccc(-c2ccccc2)cc1 (stereo not drawn) [6a]	n.i. @ 100 µM	LSD1 inhibition in words (LSD1 [2]): inactive
C#CCNCC(O)CN(C)c1ccc(-c2ccccc2)cc1 (stereo not drawn) [6b, 1-(N-Methyl-4-phenylanilino)-3-(prop-2-ynylamino)propan-2-ol]	n.i. @ 100 µM	LSD1 inhibition in words (LSD1 [2]): inactive
OC(CNC1CC1)COc1ccc(-c2ccccc2)cc1 (stereo not drawn) [7a]	n.i. @ 100 µM	
OC(CNC1CC1)COc1ccc2ccccc2c1 (stereo not drawn) [7b]	n.i. @ 100 µM	
C#CCN(C)[C@H](C)Cc1ccccc1 [deprenyl]		Inhibitory activity on LSD1 (LSD1 [3]): millimolar range
C#CCN(C)Cc1ccccc1 [pargyline]		Inhibitory activity on LSD1 (LSD1 [3]): millimolar range
